This passage reports IC50 and EC50 results from patent US7348425B2, “Inhibitors of HCV replication” (Bristol-Myers Squibb Company, priority 2004, dated 2008).

In one assay the target is T1, HCV NS5B RdRp genotype 1b (Hepatitis C virus genotype 1b, UniProt Q9WMX2).
T1 construct: The protein was expressed with an 18 amino acid C-terminal truncation to enhance the solubility; made in house; host or cells: E. coli BL21 (DE3), pET21a
T1 sequence (Q9WMX2 2420-2992): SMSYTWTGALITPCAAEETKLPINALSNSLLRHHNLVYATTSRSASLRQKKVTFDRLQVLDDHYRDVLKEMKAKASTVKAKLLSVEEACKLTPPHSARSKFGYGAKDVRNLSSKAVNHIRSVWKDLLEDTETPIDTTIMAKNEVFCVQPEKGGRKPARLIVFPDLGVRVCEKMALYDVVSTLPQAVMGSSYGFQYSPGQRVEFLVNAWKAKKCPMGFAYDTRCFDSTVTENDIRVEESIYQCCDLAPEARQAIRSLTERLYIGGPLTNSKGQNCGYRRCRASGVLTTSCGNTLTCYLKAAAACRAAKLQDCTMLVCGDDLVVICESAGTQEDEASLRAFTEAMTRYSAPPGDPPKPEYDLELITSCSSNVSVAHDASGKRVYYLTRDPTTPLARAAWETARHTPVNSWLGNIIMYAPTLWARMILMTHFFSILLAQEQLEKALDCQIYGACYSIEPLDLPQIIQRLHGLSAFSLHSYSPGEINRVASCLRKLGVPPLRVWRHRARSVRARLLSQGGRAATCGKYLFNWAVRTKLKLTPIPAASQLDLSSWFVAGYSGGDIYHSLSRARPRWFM
Put plainly: Modified HCV NS5B RdRp enzyme assay (with preincubation). It counts as biochemical. The settings on record: modified method (with preincubation). A digest of the protocol: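 Seven-point IC50s were derived from SPA-based ³H-UTP incorporation after 4 h at 30 °C (Hepes pH 7.5, 2% DMSO). Compound was first mixed with 14 nM Δ18 NS5B genotype 1b enzyme. Then 0.2 nM polyA, 0.29 μM UTP and bead-bound oligo-dT12 (20 nM) were added.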
In the case of `O=C(O)/C=C/c1ccc(NC(=O)C2(NC(=O)c3ccc4c(C5CCCCC5)c5n(c4c3)CCCc3ccccc3-5)CCCC2)cc1`, the IC50 was 20 to 1000 nM.

`COC1c2ccccc2-c2c(C3CCCCC3)c3ccc(C(=O)NC4(C(=O)Nc5ccc(/C=C/C(=O)O)cc5)CCCC4)cc3n21` (stereo not drawn) showed a 50% inhibitory concentration (IC50) of 20 to 1000 nM.

`O=C(O)/C=C/c1ccc(NC(=O)C2(NC(=O)c3ccc4c(C5CCCCC5)c5n(c4c3)C/C=C\CNc3ccccc3-5)CCCC2)cc1` gave an IC50 of 20 to 1000 nM.

`O=C(O)/C=C/c1ccc(NC(=O)C2(NC(=O)c3ccc4c(C5CCCCC5)c5n(c4c3)CCCn3ccnc3-5)CCCC2)cc1`: the half-maximal inhibitory concentration (IC50) fell in the range of 20 to 1000 nM.

`CCOC(=O)/C=C/c1ccc(NC(=O)C2(N(C)C(=O)c3ccc4c(C5CCCCC5)c5n(c4c3)CCCc3ccccc3-5)CCCC2)cc1` had an IC50 greater than 1000 nM.

A further assay concerns HCV replicon. In words: HCV replicon luciferase assay. The settings on record: Hepatitis C virus, cells marked **: Luciferase assay; read-out: EC50. It counts as cell-based, Hepatitis C virus. As to the method: To prepare plates, HCV replicon cells, with or without a Renilla luciferase reporter gene, were trypsinized and placed into each well of a 96-well plate with titrated test compounds added in columns 3 through 12; columns 1 and 2 contained a control compound (HCV protease inhibitor), and the bottom row contained cells without compound. The plates were then placed in a CO2 incubator at 37 degrees C.
Assays. Subsequent to addition of the test compounds described above (FRET Assay Preparation), at various times the plate was removed and Alamar blue solution (Trek Diagnostics, #00-100) was added per well as a measure of cellular toxicity. After reading in a Cytoflour 4000 instrument (PE Biosystems), plates were rinsed with PBS and then used for FRET assay by the addition of 30 ul of the FRET peptide assay reagent described above (FRET Assay Preparation) per well. The plate was then placed into the Cytoflour 4000 instrument which had been set to 340 excite/490 emission, automatic mode for 20 cycles and the plate read in a kinetic mode. Typically, the signal to noise using an endpoint analysis after the reads was at least three-fold. Alternatively, after Alamar blue reading, plates were rinsed with PBS, 50 ul of DMEM (high glucose) without phenol red was added and plates were then used for luciferase assay using the Promega Dual-Glo Luciferase Assay System.
Compound analysis was determined by quantification of the relative HCV replicon inhibition and the relative cytotoxicity values. To calculate cytoxicity values, the average Alamar Blue fluorescence signals from the control wells were set as 100% non-toxic. The individual signals in each of the compound test wells were then divided by the average control signal and multiplied by 100% to determine […]. To calculate the HCV replicon inhibition values, an average background value was obtained from the two wells containing the highest amount of HCV protease inhibitor at the end of the assay period. These numbers were similar to those obtained from naïve Huh-7 cells.
The background numbers were then subtracted from the average signal obtained from the control wells and this number was used as 100% activity. The individual signals in each of the compound test wells were then divided by the averaged control values after background subtraction and multiplied by 100% to determine percent activity. EC50 values for a protease inhibitor titration were calculated as the concentration which caused a 50% reduction in FRET or luciferase activity. The two numbers generated for the compound plate, percent cytoxicity and percent activity were used to determine compounds of interest for further analysis.
(In general: A replicon is a self-replicating genome or part of one, used to study replication in cells.)
For the molecule `O=C(O)/C=C/c1ccc(NC(=O)C2(NC(=O)c3ccc4c(C5CCCCC5)c5n(c4c3)CCCc3ccccc3-5)CCCC2)cc1`, the EC50 is 10 to 1000 nM.

Regarding `CCNC(=O)N(CCCN(C)C)C(=O)c1ccc2c(C3CCCCC3)c3n(c2c1)CCCc1ccccc1-3`, the EC50 lay in the range of 1000 to 10000 nM.

`CCOC(=O)/C=C/c1ccc(NC(=O)C2(NC(=O)c3ccc4c(C5CCCCC5)c5n(c4c3)C(OC)c3ccccc3-5)CCCC2)cc1` (stereo not drawn): the EC50 lay in the range of 1000 to 10000 nM.

In the case of `COC1c2ccccc2-c2c(C3CCCCC3)c3ccc(C(=O)NC4(C(=O)Nc5ccc(/C=C/C(=O)O)cc5)CCCC4)cc3n21` (stereo not drawn), the EC50 lay in the range of 10 to 1000 nM.

For `COC(=O)c1ccc2c(C3CCCCC3)c3n(c2c1)CC(=O)N3Cc1ccccc1`, the EC50 was in the range of 1000 to 10000 nM.

Consider `O=C(O)c1ccc2c(C3CCCCC3)c3n(c2c1)CC(=O)N3Cc1ccccc1`, for which the EC50 is greater than 10000 nM.

As to `COC(=O)c1ccc2c(C3CCCCC3)c3n(c2c1)CC(=O)N3`, the EC50 lay in the range of 1000 to 10000 nM.

For `CC(C)(C)OC(=O)/C=C/c1ccc(NC(=O)C2(NC(=O)c3ccc4c(C5CCCCC5)c5n(c4c3)CC(=O)N5Cc3ccccc3)CCCC2)cc1`, the concentration giving a half-maximal response (EC50) is greater than 10000 nM.

Turning to `CCOC(=O)/C=C/c1ccc(NC(=O)C2(NC(=O)c3ccc4c(C5CCCCC5)c5n(c4c3)CC(=O)Nc3ccccc3-5)CCCC2)cc1`, the EC50 was in the range of 10 to 1000 nM.

As for `O=C(O)c1ccc2c(C3CCCCC3)c3n(c2c1)CC/C=C\Nc1ccccc1-3`, the EC50 was 1000 to 10000 nM.

Consider `Cn1c(-c2ccccc2)c(C2CCCCC2)c2ccc(C(=O)NC3(c4nnnn4CC(=O)O)CCCC3)cc21`, for which the concentration for a half-maximal effect (EC50) was greater than 10000 nM.

For `O=C(O)/C=C/c1ccc(NC(=O)C2(NC(=O)c3ccc4c(C5CCCCC5)c5n(c4c3)C/C=C\CNc3ccccc3-5)CCCC2)cc1`, the concentration giving a half-maximal response (EC50) lay in the range of 10 to 1000 nM.

Regarding `COC(=O)c1ccc2c(C3CCCCC3)c3n(c2c1)CC(=O)N3c1ccccc1`, the EC50 was greater than 10000 nM.

As for `O=C(O)c1ccc2c(C3CCCCC3)c3n(c2c1)CC(=O)N3c1ccccc1`, the EC50 was greater than 10000 nM.

Take `O=C1Cn2c(c(C3CCCCC3)c3ccc(C(=O)O)cc32)N1`: the EC50 is greater than 10000 nM.

For the molecule `O=C(O)c1ccc2c(C3CCCCC3)c3n(c2c1)CCOc1ccccc1-3`, the EC50 lay within 10 to 1000 nM.

In the case of `O=C(O)c1ccc2c(C3CCCCC3)c3n(c2c1)CCCn1ccnc1-3`, the EC50 is greater than 10000 nM.

Take `O=C(O)/C=C/c1ccc(NC(=O)C2(NC(=O)c3ccc4c(C5CCCCC5)c5n(c4c3)CCCn3ccnc3-5)CCCC2)cc1`: the EC50 lay within 1000 to 10000 nM.

`CCOC(=O)/C=C/c1ccc(NC(=O)C2(N(C)C(=O)c3ccc4c(C5CCCCC5)c5n(c4c3)CCCc3ccccc3-5)CCCC2)cc1`: the half-maximal effective concentration (EC50) lay within 1000 to 10000 nM.

`COC(=O)c1ccc2c(C3CCCCC3)c3n(c2c1)CC(NC(=O)N1CCOCC1)Cc1ccccc1-3` (stereo not drawn): the EC50 lay within 1000 to 10000 nM.

Consider `CCOC(=O)c1cc2ccccc2c2c(C3CCCCC3)c3ccc(C(=O)OC)cc3n12` [drawing 141], for which the EC50 was greater than 10000 nM.

With `O=C(O)c1ccc2c(C3CCCCC3)c3n(c2c1)CC(C(=O)O)Cc1ccccc1-3` (stereo not drawn) [drawing 147], the EC50 is greater than 10000 nM.

The same assay, now with this note: Hepatitis C virus, luciferase method; read-out: EC50.
In the case of `COC(=O)/C=C/c1ccc(NC(=O)C2(NC(=O)c3ccc4c(C5CCCCC5)c5n(c4c3)CCCc3occc3-5)CCCC2)cc1`, the EC50 is 100 to 1000 nM.

As to `O=C(O)/C=C/c1ccc(NC(=O)C2(NC(=O)c3ccc4c(C5CCCCC5)c5n(c4c3)CCCc3occc3-5)CCCC2)cc1`, the EC50 is less than 100 nM.

Turning to `COC(=O)c1ccc2c(C3CCCCC3)c3n(c2c1)CC=Cc1ccccc1-3` [Example 1, Methyl 13-cyclohexyl-7H-indolo[2,1-a][2]benzazepine-10-carboxylate], the EC50 was greater than 10000 nM.

For the molecule `COC(=O)c1ccc2c(C3CCCCC3)c3n(c2c1)CC=Cc1cc(OCc2ccccc2)ccc1-3` [Example 4, Methyl 13-cyclohexyl-3-benzyloxy-7H-indolo[2,1-a][2]benzazepine-10-carboxylate], the EC50 is greater than 10000 nM.

`COC(=O)c1ccc2c(C3CCCCC3)c3n(c2c1)CCCc1cc(O)ccc1-3` [Example 5, Methyl 13-cyclohexyl-3-hydroxy-6,7-dihydro-5H-indolo[2,1-a][2]benzazepine-10-carboxylate]: the EC50 was greater than 10000 nM.

For the molecule `O=C(O)c1ccc2c(C3CCCCC3)c3n(c2c1)CCOc1cccnc1-3` [Example 13, 13-cyclohexyl-6,7-dihydropyrido[2′,3′:6,7][1,4]oxazepino[4,5-a]indole-10-carboxylic acid], the EC50 was 100 to 1000 nM.

As usually defined, the IC50 is the concentration that inhibits the measured activity by half. Read a high IC50 as lower potency. What is called EC50 is the midpoint of the concentration-response curve.
